Source: patent US10758539B2, “Therapeutic compounds and uses thereof” (Kala Pharmaceuticals, Inc., priority 2013, dated 2020)
Read-outs that look alike come from different tables or passages of the source.

Columns and labels:
[1] = Particle size of compounds milled with PLURONIC F127 as MPP, by dynamic light scattering; type: physicochemical; settings: formulated as MPP, milled with PLURONIC F127, buffered with DPBS
Source text: The compounds of the present invention synthesized in accordance with the preceding Examples were formulated as mucus penetrating particles (MPP). Specifically, Compound 4 of Example 1, Compound 9 of Example 2, and Compound 13 of Example 3 were each milled in the presence of PLURONIC F127 (F127) to determine whether F127 1) aids particle size reduction to several hundreds of nanometers and 2) physically (non-covalently) coats the surface of generated nanoparticles with a mucoinert coating that would minimize particle interactions with mucus constituents and prevent mucus adhesion.
A milling procedure was employed in which an aqueous dispersion containing coarse drug particles and PLURONIC F127 (F127) was milled with grinding medium until particle size was reduced below 400 nm as measured by dynamic light scattering. Table 4 lists the size of particles and polydispersity index (a measure of the width of the particle size distribution) generated using this technique. In this example suspensions were buffered using DPBS (Dulbecco's Phosphate-Buffered Saline) which yields a suspension that is both isotonic and has a physiologically relevant pH.

[2] = Draize-Ocular Irritation assessment during the PK study; type: in vivo, Dutch-belted rabbits; settings: MPP 0.5%, 50 μL topical, BID 5 days
Source text: (§1) Dutch-belted rabbits were used in these studies.

[3] = Pharmacokinetic study, back of the eye drug exposure after topical instillation of MPP; type: in vivo, Dutch-belted rabbits; settings: Dutch-belted, rabbit, topical or ocular, 50 μL of 0.5% MPP, MPP 0.5%, 50 μL topical, BID 5 days, 8 mm round punch
Source text: as §1
The portion of the retina and choroid collected and analyzed was an 8 mm round punch where the macula is located in humans.

[4] = Physical and chemical stability of Compound 4 solutions at ambient temperature; type: physicochemical; settings: 20-25° C.
Protocol: In this example, Compound 4 was formulated as a solution for topical ocular administration. Solutions of Compound 4 were formulated at a range of concentrations. Briefly, Compound 4 was first completely solubilized using an acidic solution (0.1N HCl) at a high concentration of ˜5% (w/v). The final formulation was diluted to 0.5, 0.1, or 0.05% (w/v) Compound 4 into 20 mM Citrate buffered solution containing TWEEN 80 as described in Table 7. Following dilution, the pH's of the formulations were estimated to be ˜5.5-6.5, using a universal pH indicator solution (Ricca).
Solution physical and chemical stability at ambient temperature (20-25° C.) were evaluated 10-21 days after initial formulation (tfinal). Physical stability was assessed visually. No precipitation or sedimentation in any samples was observed. All formulations maintained good chemical stability, within 10% of target concentration at tfinal. The API purity as defined by % peak area for all formulations were also high, at >99% (Table 8). Formulations pH's were also measured using a universal pH indicator solution (RICCA) and confirmed be similar to those at initial time of formulation.

[5] = target API 0.05% (w/v), TWEEN 80 0.05% (w/v), tfinal 13 days
[6] = target API 0.10% (w/v), TWEEN 80 0.1% (w/v), tfinal 21 days
[7] = target API 0.50% (w/v), TWEEN 80 4% (w/v), tfinal 10 days

**Q.** For CCCNC(=O)n1c(C)cc2c(F)c(Oc3ncnc4cc(OC)c(OC)cc34)ccc21 [Compound 13, 5-(6,7-Dimethoxyquinazolin-4-yloxy)-4-fluoro-2-methyl-N-propyl-1H-indole-1-carboxamide], which “Particle Size” value [1] is on record?
**A.** 165 nm

**Q.** And the “Polydispersity Index (PDI)” value [1]?
**A.** 0.227

**Q.** With COc1cc2c(Oc3ccc4[nH]c(C)cc4c3F)ncnc2cc1OCCCN1CCC2(CC1)COC2 [Compound 4, 7-(3-(4-(4-fluoro-2-methyl-1H-indol-5-yloxy)-6-methoxyquinazolin-7-yloxy)propyl)-2-oxa-7-azaspiro[3.5]nonane] as the compound, how does the “Particle Size” value [1] read?
**A.** 270 nm

**Q.** What about the “Polydispersity Index (PDI)” value [1] of the same compound?
**A.** 0.142

**Q.** What about the “Draize-Ocular Irritation” value [2] of the same compound?
**A.** no irritation was seen

**Q.** And the AUC(0-t) ([3]; choroid, read-out: AUC0-last Choroid)?
**A.** 37.2 µM·h

**Q.** What about the Cmax ([3]; choroid, read-out: Cmax Choroid) of the same compound?
**A.** 3900 nM

**Q.** What about the AUC(0-t) ([3]; retina, read-out: AUC0-last Retina) of the same compound?
**A.** 1.15 µM·h

**Q.** And the Cmax ([3]; retina, read-out: Cmax Retina)?
**A.** 193 nM

**Q.** And the “API % (w/v) at t = tfinal” value [4, 5]?
**A.** 0.05 % (w/v)

**Q.** And the “API % peak area at t = tfinal” value [4, 5]?
**A.** 99.45%

**Q.** What about the “API % (w/v) at t = tfinal” value [4, 6] of the same compound?
**A.** 0.11 % (w/v)

**Q.** And the “API % peak area at t = tfinal” value [4, 6]?
**A.** 99.47%

**Q.** And the “API % (w/v) at t = tfinal” value [4, 7]?
**A.** 0.51 % (w/v)

**Q.** And the “API % peak area at t = tfinal” value [4, 7]?
**A.** 99.27%
